{"source": "patent US20250170111A1", "about": "“PYRIDINE BASED CHALCONE ANALOGS AS THERAPEUTIC AGENTS AND USE THEREOF” (QATAR UNIVERSITY, priority 2023, published 2025)", "key": {"PC3 and DU145 [1]": {"test_system": "PC3 and DU145", "assay": "Cell cycle analysis (PI flow cytometry), PC3 and DU145", "assay_type": "cell-based, human", "conditions": "48 hours", "description": "The compounds' effect on cell cycle distribution of PC3 and DU145 was assessed by flow cytometry using propidium iodide (PI). Cells were seeded in 100 mm Petri dishes at a density of 1.5 million cells/dish and incubated in RPMI supplemented with 10% FBS overnight at 37° C. Complete culture media was then removed, and cells were starved in serum serum-free for 16 hours to synchronize cells at the G0/G1 phase of the cell cycle. Subsequently, cells were treated with the compounds 13, 15, and 16 or docetaxel for 48 hours. After treatment, floating and adherent cells were collected, washed with ice-cold PBS and centrifuged at 500 g for 10 minutes at 4° C. Next, cells were fixed with ice-cold 70% ethanol added drop wisely while vertexing and stored at −20° C. for at least 24 hours. On the day of analysis, cells were pelleted (centrifuged at 800 g for 10 minutes at 4° C.), washed twice with ice-cold PBS and counted. […] Following incubation, cells were immediately analyzed by BD FACSAria™ II Flow Cytometer, at least 50,000 events were acquired for each sample. The proportion of cells in each cell cycle phase: G1, S and G2-M was determined using FlowJo software based on cells' DNA content as represented by histograms of PI signal intensity."}, "MDA-MB-436": {"test_system": "MDA-MB-436", "assay": "Alamar Blue cell viability assay, MDA-MB-436", "assay_type": "cell-based", "conditions": "Homo sapiens, Mean ± SEM, read-out: IC50 against MDA-MB-436", "text": "(§1) Besides, the effect of these analogs was compared to docetaxel, a first-line chemotherapy, as a positive control."}, "MDA-MB-231": {"test_system": "MDA-MB-231", "assay": "Alamar Blue cell viability assay, MDA-MB-231", "assay_type": "cell-based", "conditions": "Homo sapiens, Mean ± SEM, read-out: IC50 against MDA-MB-231", "text": "as §1"}, "PC3 and DU145 [2]": {"test_system": "PC3 and DU145", "assay": "Soft agar colony formation assay, PC3 and DU145 (stated for both)", "assay_type": "cell-based, human", "conditions": "5 and 10 μM, 14 days, both cell lines", "description": "(§2) Anchorage-independent growth, a characteristic of transformed cells that correlate with in vivo tumorigenic potential, was assessed by soft agar assay. First, a 2% noble agar (Sigma-Aldrich) stock solution was prepared in deionized and autoclaved water. […] After 14 days, the average number of colonies in each well was counted manually under the microscope and confirmed by ImageJ; only colonies with an area larger than […] were counted to avoid the inclusion of non-proliferating dead cells. Besides, the size of colonies in each treatment condition was measured by ImageJ from at least six random fields per well."}, "CAM of chicken embryos": {"test_system": "CAM of chicken embryos", "assay": "Chorioallantoic membrane (CAM) angiogenesis assay", "assay_type": "in vivo", "conditions": "in ovo, 48 hours post-treatment, vs control", "description": "Fertilized white leghorn chicken eggs were obtained from Arab […] for Poultry Production, Doha, Qatar. Eggs were incubated in a rotary humidified MultiQuip Incubator at 37° C. with 60% humidity. Ethics approval was obtained from Institutional Animal Care & Use Committee and Institutional Bio-safety committee at Qatar University. […] Briefly, eggshells were disinfected with ethanol and a small opening was made in the shell over the air sac. Next, 200 μl of 1×PBS was added and the shell membrane was carefully removed. […] Subsequently, opened windows were sealed and the eggs were returned to a stationary incubator (FIG. 11). The effect of compounds on angiogenesis was monitored for 48 hours post-treatment and microscopic images of exposed (under coverslip) and unexposed area in each embryo were captured at equivalent magnification. Images were then analyzed using AngioTool software using the following parameters: vessel diameter thresholds at, vessel thickness at 7 and 10, removed small particles at 60, and filled holes at 183. The difference in blood vessel formation between treated and untreated embryos was assessed based on average vessel length, vessel percentage area and the total number of blood vessel junctions. […]"}, "DU145 [3]": {"test_system": "DU145", "assay": "Annexin V / 7-AAD apoptosis assay, DU145", "assay_type": "cell-based, human", "conditions": "48 hours", "description": "(§3) Cellular apoptosis was assessed by PE Annexin V apoptosis Detection Kit (BDPharmingen, USA) as per the manufacturer's protocol. Briefly, cells were seeded in 100 mm Petri dishes at a density of 1.5 million cells/dish and incubated overnight. […] Adherent and floating cells were then harvested by trypsin, washed twice by PBS, resuspended in binding buffer and stained with Phycoerythrin (PE) conjugated Annexin-V, 7-AAD or both stains for 15 minutes. After staining, samples were analyzed by BD FACSAria™ II Flow Cytometer and FlowJo software. First, the cell population, excluding debris, was gated with forward scatter (FSC-A) and side scatter (SSC-A). Then, doublets were excluded using FSC-height and FSC-width plots. […] Quad Gates were used to calculate the percentage of viable cells (annexin V low, 7-AAD low), early pro-apoptotic cells (annexin V high, 7-AAD low) and late apoptosis/dead cells (annexin V high, 7-AAD high)."}, "DU145 [4]": {"test_system": "DU145", "assay": "Alamar Blue cell viability assay, DU145", "conditions": "Homo sapiens, DU-145, 48 h"}, "[5]": {"test_system": "primary human dental bulb cells (ND)", "assay": "Alamar Blue cell viability, normal primary dental cells", "conditions": "48 hours, Mean ± SEM"}, "PC3 [6]": {"test_system": "PC3", "assay": "Annexin V / 7-AAD apoptosis assay, PC3", "assay_type": "cell-based, human", "conditions": "48 hours", "description": "as §3"}, "Bax, Bcl-2": {"test_system": "Bax, Bcl-2", "assay": "Western blot of apoptosis-related proteins in PC3 and DU145", "conditions": "PC3 and DU145, 48 hours of treatment"}, "PC3 and DU145 [7]": {"test_system": "PC3 and DU145", "assay": "Wound healing assay, PC3 and DU145", "conditions": "both cell lines; significant from 5 μM in PC3"}, "DU145 [8]": {"test_system": "DU145", "assay": "Cell cycle analysis (PI flow cytometry), DU145", "assay_type": "cell-based, human", "conditions": "DU145, 48 hours; not statistically significant (P>0.05)", "description": "Cells were seeded in 100 mm Petri dishes at a density of 1.5 million cells/dish and incubated in RPMI supplemented with 10% FBS overnight at 37° C. Complete culture media was then removed, and cells were starved in serum serum-free for 16 hours to synchronize cells at the G0/G1 phase of the cell cycle. Subsequently, cells were treated with the compounds 13, 15, and 16 or docetaxel for 48 hours. After treatment, floating and adherent cells were collected, washed with ice-cold PBS and centrifuged at 500 g for 10 minutes at 4° C. Next, cells were fixed with ice-cold 70% ethanol added drop wisely while vertexing and stored at −20° C. for at least 24 hours. On the day of analysis, cells were pelleted (centrifuged at 800 g for 10 minutes at 4° C.), washed twice with ice-cold PBS and counted. Around one million cells of each sample were resuspended in 500 μl of FxCycle PI/RNase Staining Solution® (Thermo Fisher Scientific, USA) supplemented with 200 μg/ml RNase and incubated for 50 minutes at 37° C. in a shaking water bath, protected from light. Following incubation, cells were immediately analyzed by BD FACSAria™ II Flow Cytometer, at least 50,000 events were acquired for each sample. The proportion of cells in each cell cycle phase: […]"}, "PC3 and DU145 [9]": {"test_system": "PC3 and DU145", "assay": "Morphological examination, PC3 and DU145", "assay_type": "cell-based, human", "conditions": "5 μM", "description": "Cells were seeded in 6 wells plate at a density of 150,000-200,000 cells/well and were incubated overnight. Then, cells were treated with the synthesized compounds at 5-10 μM concentration for 48 hours. Morphological changes were monitored using a DMi8 inverted microscope (Leica, Germany) and images were captured with a Leica MC170 HD camera.\nThe induction of apoptosis in cancer cells has been widely considered an important criterion in developing anticancer drugs. To confirm whether the synthesized compounds could reduce cell viability and induce apoptosis in PC3 and DU145, prostate cancer cells were treated with compounds 1-16 at 10 μM concentrations for 48 hours. Cells were examined for the formation of apoptotic bodies or death by phase-contrast microscopy (FIGS. 21 and 22). More importantly, cells were monitored for characteristic changes in cell morphology as they can provide insight into cell differentiation, invasiveness, survival, and genetic alterations."}, "DU145 [10]": {"test_system": "DU145", "assay": "Soft agar colony formation assay, DU145", "assay_type": "cell-based, human", "parameters": "average size of detected colonies, DU145: unit not given here", "conditions": "10 μM", "description": "as §2"}, "PC3 and DU145 [11]": {"test_system": "PC3 and DU145", "assay": "Alamar Blue cell viability, AR-negative PCa cell lines (stated for both)", "conditions": "Homo sapiens, DU-145, read-out: IC50 against PC3 and DU145 cell lines"}, "PC3 [12]": {"test_system": "PC3", "assay": "Soft agar colony formation assay, PC3", "assay_type": "cell-based, human", "parameters": "average size of detected colonies, PC3: unit not given here", "conditions": "10 μM", "description": "as §2"}, "JNK1/2/3, ERK1/2, Akt": {"test_system": "JNK1/2/3, ERK1/2, Akt", "assay": "Western blot of JNK, ERK and AKT-related biomarkers in PC3", "conditions": "PC3 cell line"}, "E-cadherin": {"test_system": "E-cadherin", "assay": "Western blot of EMT-related biomarkers in DU145", "conditions": "DU145 cells"}, "PC3 [13]": {"test_system": "PC3", "assay": "Alamar Blue cell viability assay, PC3"}, "[14]": {"conditions": "14 days, in comparison to control"}}, "note": "Read-outs that look alike come from different tables or passages of the source."}
{"smiles": "CC(=O)O[C@@]12CO[C@@H]1C[C@H](O)[C@@]1(C)C(=O)[C@H](O)C3=C(C)[C@@H](OC(=O)[C@H](O)[C@@H](NC(=O)OC(C)(C)C)c4ccccc4)C[C@@](O)([C@@H](OC(=O)c4ccccc4)[C@H]21)C3(C)C", "note": "[docetaxel, reference compound]", "values": [{"measurement": "increase of G2/M phase as compared to control", "setting": "PC3 and DU145 [1]", "value": "1.9-2.6 folds"}, {"measurement": "IC50", "setting": "MDA-MB-436; 24 hrs. post treatment", "value": "11.9 ± 2.7", "unit": "µM"}, {"measurement": "IC50", "setting": "MDA-MB-436; 48 hrs. post treatment", "value": "9.8 ± 2", "unit": "µM"}, {"measurement": "IC50", "setting": "MDA-MB-231; 24 hrs. post treatment", "value": "11 ± 1.7", "unit": "µM"}, {"measurement": "IC50", "setting": "MDA-MB-231; 48 hrs. post treatment", "value": "6.43 ± 0.6", "unit": "µM"}]}
{"smiles": "COc1cccc(C(=O)/C=C/c2cccc(-c3ccsc3)n2)c1", "note": "[Compound 16, (E)-1-(3-methoxyphenyl)-3-(6-(thiophen-3-yl)pyridin-2-yl) prop-2-en-1-one]", "values": [{"measurement": "colony formation in soft agar (number and size)", "setting": "PC3 and DU145 [2]", "value": "significant reduction in both the total number of colonies and average colony size"}, {"measurement": "effect on angiogenesis of the CAM", "setting": "CAM of chicken embryos", "value": "significant reduction in average vessel length, a total number of junctions, and vessel area"}, {"measurement": "induction of apoptosis in DU145", "setting": "DU145 [3]", "value": 47.8, "unit": "%"}, {"measurement": "IC50", "setting": "DU145 [4]; read-out: DU145 IC50", "value": "5.2 ± 0.46", "unit": "µM"}, {"measurement": "IC50", "setting": "DU145 [4]; read-out: IC50 against DU145", "value": 5.2, "unit": "µM"}, {"measurement": "cytotoxicity at 10 µM", "setting": "DU145 [4]; read-out: reduction in cell viability of DU145", "value": 81, "unit": "%"}, {"measurement": "ND LD50", "setting": "[5]", "value": "24.67 ± 1.03", "unit": "µM"}, {"measurement": "induction of apoptosis in PC3", "setting": "PC3 [6]", "value": 34.7, "unit": "%"}, {"measurement": "Bax/Bcl-2 expression", "setting": "Bax, Bcl-2", "value": "significant increase in Bax/Bcl-2 ratio"}, {"measurement": "wound closure", "setting": "PC3 and DU145 [7]", "value": "dose-dependent reduction in wound closure"}, {"measurement": "effect on cell cycle distribution", "setting": "DU145 [8]", "value": "slight accumulation in G2/M and sub G1 phases"}, {"measurement": "effect on cell morphology", "setting": "PC3 and DU145 [9]", "value": "increased cell detachment, the formation of apoptotic bodies, and cell shrinkage"}, {"measurement": "reduction in number of colonies, DU145", "setting": "DU145 [10]; [14]", "value": 84.9, "unit": "%"}, {"measurement": "average size of detected colonies, DU145", "setting": "DU145 [10]; control 196.0", "value": 18.7}, {"measurement": "IC50", "setting": "PC3 and DU145 [11]", "value": "4.32 to 6.47", "unit": "µM"}, {"measurement": "reduction in number of colonies, PC3", "setting": "PC3 [12]; [14]", "value": 82.8, "unit": "%"}, {"measurement": "average size of detected colonies, PC3", "setting": "PC3 [12]; control 583.2", "value": 20.0}, {"measurement": "expression of JNK1/2/3, ERK1/2, Akt and phosphorylated forms", "setting": "JNK1/2/3, ERK1/2, Akt", "value": "significantly reduced the expression of JNK1/2/3 and phosphorylated ERK1/2"}, {"measurement": "expression of E-cadherin", "setting": "E-cadherin", "value": "significantly upregulate the expression of E-cadherin"}, {"measurement": "reduction in cell viability of PC3", "setting": "PC3 [13]; 2.5 μM", "value": 47.5, "unit": "%"}, {"measurement": "IC50", "setting": "PC3 [13]; read-out: PC3 IC50, 48 hours, Mean ± SEM of three independent experiments", "value": "4.32 ± 0.37", "unit": "µM"}]}
